These results are taken from publication PMC11100219, “Dual-function antimicrobial-antibiofilm peptide hybrid to tackle biofilm-forming Staphylococcus epidermidis” (Annals of Clinical Microbiology and Antimicrobials, 2024).

Series [1] concerns all gram-negative bacterial strains. The series can be described thus: Mean MIC and therapeutic index, gram-negative strains. In kind it is cell-based. To be noted: four gram-negative strains. On the procedure: (§1) The minimal inhibitory concentrations (MICs) of peptide derivatives versus planktonic bacteria were assessed using a modification of the broth microdilution assay previously described in the National Committee for Clinical Laboratory Standards (NCCLS). In brief, bacteria at mid-logarithmic growth were collected by centrifugation at 2,500 × g for 5 min. Subsequently, the pellet was resuspended and adjusted in Mueller-Hinton Broth (MHB; BD Bacto™, USA) to an OD620 of 0.05. Fifty µL of bacterial suspensions was transferred to 96-well microplates. Later, 50 µL of peptide derivatives at 0.98–250 µg/mL in 10 mM PBS, was added to wells and incubated for 24 h at 37°C with continuous shaking at 220 rpm. […] The experiments were done in three technical replicates and repeated independently.
(§2) The therapeutic index (TI) is widely used for evaluating a peptide’s efficacy and safety. It is the ratio between the minimum hemolytic concentration (MHC, the concentration causing 10% hemolysis) and the geometric mean (GM) value of the MIC [15]. […] While, both lysine-substituted peptides (BiF2_7K and BiF2_5K7K) had higher TIs against all tested biofilm-forming bacteria than did the two parent peptides, and the TI of BiF2_5K7K was higher than that of BiF2_7K.

The test system of series [2] is all gram-positive bacterial strains. Nature of the series: Mean MIC and therapeutic index, gram-positive strains. Type of series: cell-based. The following applies: four gram-positive strains. The procedure:
as §1, §2

For series [3], the system named is Staphylococcus epidermidis ATCC 35984. Nature of the series: Broth microdilution MIC / MBC. In kind it is cell-based. The following applies: 24 h, 37°C. On the procedure:
as §1
(§3) To determine minimal bactericidal concentrations (MBCs) of the peptides, 50 µL of supernatant from non-turbid wells was plated on TSA, and the number of colony-forming units (CFUs) was observed after 24 h of incubation at 37°C. MBC was defined as the minimum concentration of peptide at which no bacterial colony was observed on the plate.

Series [4] concerns Salmonella Typhimurium ATCC 13311. Nature of the series: Broth microdilution MIC / MBC. To be noted: 24 h, 37°C. Type of series: cell-based. On the procedure: as §1, §3
Series [5] relates to Bacillus cereus ATCC 11778. The series can be described thus: Broth microdilution MIC / MBC. Type of series: cell-based. The following applies: 24 h, 37°C. On the procedure: as §1, §3
Series [6] relates to Escherichia coli ATCC 25922. Nature of the series: Broth microdilution MIC / MBC. Type of series: cell-based. To be noted: 24 h, 37°C. On the procedure:
as §1, §3

Series [7] relates to Listeria monocytogenes 10403s. The series can be described thus: Broth microdilution MIC / MBC. To be noted: 24 h, 37°C. Type of series: cell-based. The procedure: as §1, §3
The subject of series [8] is Acinetobacter baumanii MT strain. The series can be described thus: Broth microdilution MIC / MBC. Type of series: cell-based. The following applies: 24 h, 37°C. On the procedure: as §1, §3
Series [9] deals with Pseudomonas aeruginosa ATCC 27853. Nature of the series: Broth microdilution MIC / MBC. In kind it is cell-based. To be noted: 24 h, 37°C. On the procedure:
as §1, §3

Series [10] has as its system Staphylococcus aureus ATCC 25923. Nature of the series: Broth microdilution MIC / MBC. Type of series: cell-based. To be noted: 24 h, 37°C. The procedure:
as §1, §3

The next series deals with biofilm-forming bacteria. The series can be described thus: Antibacterial activity against the panel of planktonic biofilm-forming bacteria. Type of series: cell-based. The procedure: The biofilm-forming bacteria, including S. epidermidis ATCC 35984, Staphylococcus aureus ATCC 25923, Bacillus cereus ATCC 11778, Listeria monocytogenes 10403s, Pseudomonas aeruginosa ATCC 27853, Salmonella Typhimurium ATCC 13311, Escherichia coli ATCC 25922 and Acinetobacter baumanii MT strain, were used. All bacterial strains were grown on tryptic soy agar (TSA; BD Bacto™, USA) except E. coli and L. monocytogenes which were cultured on Luria agar (LA) and TSA supplemented with 0.6% Yeast Extract (TSAYE), respectively, at 37°C overnight. Subsequently, isolated colonies were inoculated and cultured in 5 mL of tryptic soy broth (TSB; BD Bacto™, USA), Luria Broth (LB), or TSB supplemented with 0.6% Yeast Extract (TSBYE) at 37°C for 16–18 h.
The minimal inhibitory concentrations (MICs) of peptide derivatives versus planktonic bacteria were assessed using a modification of the broth microdilution assay previously described in the National Committee for Clinical Laboratory Standards (NCCLS). In brief, bacteria at mid-logarithmic growth were collected by centrifugation at 2,500 × g for 5 min. Subsequently, the pellet was resuspended and adjusted in Mueller-Hinton Broth (MHB; BD Bacto™, USA) to an OD620 of 0.05. Fifty µL of bacterial suspensions was transferred to 96-well microplates. […]

Series [11] concerns S. epidermidis (ATCC 35984) biofilm. The series can be described thus: Biofilm-formation inhibitory activity, crystal violet staining. Type of series: cell-based, Staphylococcus epidermidis. To be noted: CV staining, TSB, 10^6 CFU/mL, 24 h, 37°C, 0.98-250 µg/mL. The procedure: The biofilm inhibitory activity of peptide derivatives was assessed by modified crystal violet (CV) staining. Briefly, the pellet of S. epidermidis (ATCC 35984) was collected through centrifugation of bacterial suspensions grown overnight at 2,500 × g for 5 min. Subsequently, the pellet was resuspended and diluted with TSB to a final concentration of 10^6 CFU/mL. Then, 50 µL of these diluted suspensions was transferred to 96-well microplates containing same volume of peptide derivatives in 10 mM phosphate buffer saline (PBS; Caisson Labs, USA), with concentrations ranging from 0.98 to 250 µg/mL. Vancomycin was used as positive control while TSB medium without bacteria was used as negative control. After 24 h of incubation and reaching static growth at 37°C, culture media as well as planktonic cells were removed, then the biofilm in each well was washed thrice with 0.85% NaCl. For CV staining, biofilms were fixed with 95% ethanol and stained with a 0.1% (v/v) CV solution for 15 min. After removal of excess dye, each well was washed thrice with 0.85% NaCl and resuspended in 95% ethanol to dissolve bound dye. Absorbance was determined at 570 nm using a Multiskan SkyHigh microplate reader (Thermo Scientific™, Singapore). All experiments were done in six technical replicates and repeated independently three times. Minimum biofilm inhibitory concentrations at 50% and 90% (MBIC50 and MBIC90) refers to concentrations of the peptide at which the inhibition of biofilm was at least 50% and 90%, respectively.

The test system of series [12] is human red blood cells (hRBCs). The series can be described thus: Hemolysis activity (hemoglobin release). In kind it is cell-based. The following applies: 1 h, 37°C. On the procedure:
The effect of peptides on human red blood cells (hRBCs) was assessed by observing the release of hemoglobin upon treated with peptide. Briefly, the hRBCs were obtained from healthy volunteers and subsequently diluted in 10 mM PBS to a concentration of 2% hRBCs. An equal volume of 2% hRBCs and peptide at concentration of 0.98–250 µg/mL in 10 mM PBS mixtures were incubated for 1 h at 37°C. Following incubation, the suspension was centrifuged, then supernatants were collected and transferred to 96-well microplates for measurement of absorbance at OD of 405 nm (OD405). This study was performed in accordance with the Thammasat University Ethics Committee (COA No. 066/2562). Written informed consent was obtained from all volunteers.

[13] abbreviates: broth microdilution, MHB, 0.98-250 µg/mL, visible inspection.
The mark [14] stands for this setting: plating of non-turbid wells on TSA.

Structures are written as SMILES. Residues, ends and D or L forms follow the SMILES beside them.

With `CC[C@H](C)[C@H](NC(=O)[C@H](CC(C)C)NC(=O)[C@H](CCCCN)NC(=O)[C@@H](NC(=O)[C@H](CC(C)C)NC(=O)[C@@H](N)Cc1ccccc1)C(C)C)C(=O)N[C@@H](CC(C)C)C(N)=O` [BiF] (H-FLVKLIL-NH2; N-terminus assumed), in series [1], the “GM-, geometric mean of MIC values from all gram-negative bacterial strains” value was above 250 mg/L. The “GM +, geometric mean of MIC values from all gram-positive bacterial strains” value in [2] is above 250 mg/L. The MIC in series [3] (setting [13]), in series [4] (setting [13]), in [5] (setting [13]), in [6] (setting [13]), in series [7] (setting [13]) and in series [8] (setting [13]) was above 250 mg/L each time. Besides, the MIC in [9] (setting [13]) and in [10] (setting [13]) was above 250 mg/L each time. Also, the MBC in series [3] (setting [14]), in [4] (setting [14]), in series [5] (setting [14]), in series [6] (setting [14]), in series [7] (setting [14]) and in series [8] (setting [14]) was above 250 mg/L throughout. The MBC in series [9] (setting [14]) and in [10] (setting [14]) was above 250 mg/L each time. In addition, the “antibacterial activity against target bacteria” value in the series on biofilm-forming bacteria is listed as “no antibacterial activity”. Further, the MBIC50 in [11] (minimum concentration inhibiting biofilm formation more than 50%) is 125 µg/mL. In series [11] (minimum concentration inhibiting biofilm formation more than 90%), this molecule showed an MBIC90 above 250 µg/mL. Besides, the “hRBCs lysed (hemolysis)” value in [12] (at 31.25 µg/mL) is “more than 20%”. This molecule gave a hemolytic activity in series [12] (at 250 µg/mL (maximum concentration tested)) of 100%. The “MHC, minimum hemolytic concentration” value in series [12] (peptide concentration causing 10% hemolysis of hRBCs, 2% hRBCs in 10 mM PBS, OD405) was determined as 15.63 µg/mL.
